Test results published in US20250188030A1, “Biphenyl and Phenylpyridine Compounds” (Pfizer Inc., priority 2023, published 2025).
Read-outs that look alike come from different tables or passages of the source.

Columns and labels:
H3K9AC (HT1080 cells) = experiment: H3K9AC Sandwich ELISA Assay in HT1080 cells (KAT2A primary cell-based screening assay); design: species or system Human
Procedure: Human fibrosarcoma cell line HT1080 was obtained from American Type Culture Collection (ATCC), Manassas, VA USA, Cat. HT-1080 (ATCC® CCL-121™). Cells were cultured in MEM (Thermo Fisher Scientific/Gibco Life Technologies Cat. #11-095-080) plus 10% (v/v) FBS (Thermo Fisher Scientific/Gibco Life Technologies Cat. #26140-079) and 1% Penicillin-Streptomycin (Thermo Fisher Scientific/Gibco Life Technologies Cat. #15070063) at 37° C. in 5% CO2.
HT1080 cells were trypsinized, cell viability count performed, and cells suspended in complete media at 100,000 cells/ml. Cells were seeded (100 μl/well) into Greiner Bio-One CELLSTAR 96-well polystyrene flat bottom cell culture microplate (Thermo Fisher Scientific Cat. #07-000-162) at a density of 10,000 cells/well. Cells were incubated for 16 hours at 37° C. at 5% CO2. Compound dilution plates were prepared in 96-well, clear U-bottom, polypropylene plates (Corning 3365) in 100% DMSO at 10 mM stock concentration in duplicate, using 10-point serial dilution (1:3). Compounds were diluted to 1:200 in growth medium and 25 μl from intermediate compound plates were added to each well of the cell plates using a Beckman FX liquid handling system such that the highest compound concentration tested was 10 μM final, with a 0.1% final DMSO concentration in the total volume of 125 μl. Plates were incubated for 24 hours at 37° C. and 5% CO2. Plates were centrifuged at 2500 rpm for 5 minutes and medium was removed. 100 μL 0.4N HCL (Thermo Fisher Scientific Cat #SA56-1) was added to each well and plates were shaken for 60 minutes at 4C to lyse cells. 38ul 0.4N Sodium phosphase dibasic pH12.5 (Thermo Fisher Scientific Cat #S375-212) containing 2 mM Sodium Butyrate (Millipore TR1008G) and 3 mM Phenylmethanesulfonyl-fluoride (Sigma 93482) was added to each well to neutralize lysates.
Cell lysate plates were mixed for 5 minutes at room temperature on shaker and immediately frozen at −80C overnight. Cell lysates were thawed and 50 μL/well was transferred to ELISA plates (Total Histone H3 mouse (Cell Signaling Technology Cat #14269) mAb-coated Corning 1×8 strip-well, white, 96-well plates (Corning 2485)). After 2 hours room temperature incubation, plates were washed six times with PBS/0.05% Tween Wash Buffer using a BioTek plate washer. 50 μL of Histone H3K9AC rabbit detection mAb (Cell Signaling Technology Cat #9649S) diluted 1:1000 in blocking buffer (Thermo Fisher Scientific Cat #37542) was added to each well and incubated for 2 hours at room temperature. After washing, 50 μL anti-rabbit IgG, HRP-Linked antibody (Cell Signaling Technology Cat #7074) diluted 1:1000 in blocking buffer was added to each well and incubated for 60 minutes at room temperature. Following incubation, plates were washed as described above. 50 μL of luminescent GLO substrate reagent (R&D System Cat #DY993) was added to each well and incubated for 10 minutes at room temperature. Plates were read on the PHERAstar plate reader using the 96-well with Luminescent reading mode. IC50 values were calculated using a four-parameter fit with GraphPad Prism version 9.5.1 or in-house modified IDBS ActivityBase data analyzing package.

KAT2A = KAT2A (Homo sapiens (Human), UniProt Q92830); experiment: KAT2A acetyltransferase biochemical assay (RapidFire mass spectrometry, AcCoA to CoA)
Sequence of KAT2A (Q92830 whole entry): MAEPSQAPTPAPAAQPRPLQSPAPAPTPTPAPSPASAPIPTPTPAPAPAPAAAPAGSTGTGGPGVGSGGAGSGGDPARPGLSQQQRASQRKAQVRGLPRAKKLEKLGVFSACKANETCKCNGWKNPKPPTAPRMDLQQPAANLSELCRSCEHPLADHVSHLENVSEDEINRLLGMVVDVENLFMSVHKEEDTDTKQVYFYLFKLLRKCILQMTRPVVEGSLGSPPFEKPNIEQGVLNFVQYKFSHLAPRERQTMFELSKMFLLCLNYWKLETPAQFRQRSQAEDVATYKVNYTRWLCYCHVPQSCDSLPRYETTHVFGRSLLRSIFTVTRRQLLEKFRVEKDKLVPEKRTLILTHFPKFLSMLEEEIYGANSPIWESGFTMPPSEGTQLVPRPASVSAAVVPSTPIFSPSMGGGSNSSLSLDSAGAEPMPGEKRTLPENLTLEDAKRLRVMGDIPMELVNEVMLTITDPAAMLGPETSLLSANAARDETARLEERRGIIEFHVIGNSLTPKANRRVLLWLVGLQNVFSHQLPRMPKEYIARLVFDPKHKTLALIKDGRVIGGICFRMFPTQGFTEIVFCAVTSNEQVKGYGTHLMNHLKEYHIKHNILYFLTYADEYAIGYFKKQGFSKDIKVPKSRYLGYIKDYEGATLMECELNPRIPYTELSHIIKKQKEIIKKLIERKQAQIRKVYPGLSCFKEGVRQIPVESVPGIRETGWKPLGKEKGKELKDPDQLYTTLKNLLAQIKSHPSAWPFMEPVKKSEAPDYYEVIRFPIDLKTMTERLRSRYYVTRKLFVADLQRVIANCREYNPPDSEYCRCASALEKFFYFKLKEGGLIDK

[1] = read-out: KAT2A Ki at 1 μM AcCoA, 5 μM H3 1-21 peptide, 0.5 nM KAT2A, 90-minute reaction
[2] = KAT2A Ki at 1 μM AcCoA, 5 μM H3 1-21 peptide, 0.5 nM KAT2A, 90-minute reaction
[3] = Homo sapiens, HT-1080, H3K9AC sandwich ELISA

O=C(O)c1ccc(O[C@@H]2CC[C@@H](NC(=O)[C@@]3(F)CNC4(CCCC4)C3)C2)c(-c2cccc(F)c2C2CCC2)c1 (single isomer, unassigned) [Example A35]
IC50 (H3K9AC (HT1080 cells); H3K9AC sandwich ELISA): > 1000 nM | Ki (KAT2A; [1]): > 99.9 nM

CC1(C)CNC[C@](F)(C(=O)N[C@@H]2CC[C@@H](Oc3ccc(C(=O)O)cc3-c3cccc(F)c3C3CCC3)C2)C1 (single isomer, unassigned) [Example A37]
IC50 (H3K9AC (HT1080 cells); H3K9AC sandwich ELISA): > 1000 nM | Ki (KAT2A; [1]): 0.02 nM

CCS(=O)(=O)NC(=O)C(C)(C)c1ccc(O[C@@H]2CC[C@@H](NC(=O)C3(F)CNC4(CCC4)C3)C2)c(-c2cccc(F)c2C2CCC2)c1 (single isomer, unassigned) [Example B1]
IC50 (H3K9AC (HT1080 cells); H3K9AC sandwich ELISA): 562 nM | Ki (KAT2A; [2]): 80.5 nM

CC(C)(C(=O)NS(=O)(=O)N1CC(F)C1)c1ccc(O[C@@H]2CC[C@@H](NC(=O)[C@]3(F)CNC4(CCC4)C3)C2)c(-c2cccc(F)c2C2CCC2)c1 (single isomer, unassigned) [Example B6]
IC50 (H3K9AC (HT1080 cells); [3]): > 1000 nM | Ki (KAT2A; [1]): 746 nM

CN1C[C@@](F)(C(=O)N[C@@H]2CC[C@@H](Oc3ccc(C(C)(C)C(=O)NS(C)(=O)=O)cc3-c3cccc(F)c3C3CCC3)C2)CC1(C)C (single isomer, unassigned) [Example B8]
IC50 (H3K9AC (HT1080 cells); [3]): > 1000 nM | Ki (KAT2A; [1]): 716 nM

CC(C)(C(=O)NS(=O)(=O)N1CC(F)(F)C1)c1ccc(O[C@@H]2CC[C@@H](NC(=O)[C@]3(F)CNC4(CCC4)C3)C2)c(-c2cccc(F)c2C2CCC2)c1 (single isomer, unassigned) [Example B10]
IC50 (H3K9AC (HT1080 cells); [3]): 15.7 nM | Ki (KAT2A; [1]): 0.15 nM

CC(C)S(=O)(=O)NC(=O)C(C)(C)c1ccc(O[C@@H]2CC[C@@H](NC(=O)[C@@]3(F)CNC4(CCCC4)C3)C2)c(-c2cccc(F)c2C2CCC2)c1 (single isomer, unassigned) [Example B24]
IC50 (H3K9AC (HT1080 cells); [3]): 0.9 nM | Ki (KAT2A; [1]): 0.09 nM

CCS(=O)(=O)NC(=O)C(C)(C)c1ccc(O[C@@H]2CC[C@@H](NC(=O)[C@@]3(F)CNCC4(CCC4)C3)C2)c(-c2cccc(F)c2C2CCC2)c1 (single isomer, unassigned) [Example B32]
IC50 (H3K9AC (HT1080 cells); H3K9AC sandwich ELISA): 18.2 nM | Ki (KAT2A; [1]): 0.85 nM

CC1(C)C[C@](F)(C(=O)N[C@@H]2CC[C@@H](Oc3ccc(C(C)(C)C(=O)NS(=O)(=O)N4CCC4)cc3-c3cccc(F)c3C3CCC3)C2)CN1 (single isomer, unassigned) [Example C8]
IC50 (H3K9AC (HT1080 cells); [3]): 142 nM | Ki (KAT2A; [1]): 13.6 nM

CC(C)(C(=O)NS(C)(=O)=O)c1ccc(O[C@@H]2CC[C@@H](NC(=O)[C@@]3(F)CNC4(CCC4)C3)C2)c(-c2cccc(F)c2C2CC2)c1 (single isomer, unassigned) [Example C13]
IC50 (H3K9AC (HT1080 cells); [3]): 942 nM | Ki (KAT2A; [1]): 23.4 nM

CC(C)(C(N)=O)c1ccc(O[C@@H]2CC[C@@H](NC(=O)[C@]3(F)CNC4(CCC4)C3)C2)c(-c2cccc(F)c2C2CCC2)c1 (single isomer, unassigned) [Example C15]
IC50 (H3K9AC (HT1080 cells); [3]): > 1000 nM | Ki (KAT2A; [1]): 1270 nM

CCS(=O)(=O)NC(=O)Cc1ccc(O[C@@H]2CC[C@@H](NC(=O)[C@@]3(F)CNC4(CCC4)C3)C2)c(-c2cccc(F)c2C2CCC2)c1 (single isomer, unassigned) [Example C32]
IC50 (H3K9AC (HT1080 cells); [3]): 40.8 nM | Ki (KAT2A; [1]): 4.51 nM

CC(C)S(=O)(=O)NC(=O)Cc1ccc(O[C@@H]2CC[C@@H](NC(=O)[C@]3(F)CNC4(CCC4)C3)C2)c(-c2cccc(F)c2C2CCC2)c1 (single isomer, unassigned) [Example C41]
IC50 (H3K9AC (HT1080 cells); H3K9AC sandwich ELISA): 39.8 nM | Ki (KAT2A; [2]): 4.1 nM

CCc1c(F)cccc1-c1cc(C(C)(C)C(=O)NS(=O)(=O)C(C)C)ccc1O[C@@H]1CC[C@@H](NC(=O)[C@@]2(F)CNCC(C)(C)C2)C1 (single isomer, unassigned) [Example C44]
IC50 (H3K9AC (HT1080 cells); H3K9AC sandwich ELISA): > 1000 nM | Ki (KAT2A; [1]): > 99.9 nM

CCc1c(F)cccc1-c1cc(CC(=O)NS(=O)(=O)C2(C)CC2)ccc1O[C@@H]1CC[C@@H](NC(=O)[C@@]2(F)CNCC(C)(C)C2)C1 (single isomer, unassigned) [Example C56]
IC50 (H3K9AC (HT1080 cells); H3K9AC sandwich ELISA): > 1000 nM | Ki (KAT2A; [1]): > 99.9 nM

CCS(=O)(=O)NC(=O)Cc1ccc(O[C@@H]2CC[C@@H](NC(=O)[C@@]3(F)CNCC4(CCC4)C3)C2)c(-c2cccc(F)c2C2CCC2)c1 (single isomer, unassigned) [Example C59]
IC50 (H3K9AC (HT1080 cells); H3K9AC sandwich ELISA): 440 nM | Ki (KAT2A; [1]): 12.1 nM

CC1(S(=O)(=O)NC(=O)Cc2ccc(O[C@@H]3CC[C@@H](NC(=O)[C@@]4(F)CNC5(CCCC5)C4)C3)c(-c3cccc(F)c3C3CCC3)c2)CC1 (single isomer, unassigned) [Example C69]
IC50 (H3K9AC (HT1080 cells); [3]): 0.6 nM | Ki (KAT2A; [1]): 0.04 nM

CCS(=O)(=O)NC(=O)Cc1ccc(O[C@@H]2CC[C@@H](NC(=O)[C@@]3(F)CNC4(CCCC4)C3)C2)c(-c2cccc(F)c2C2CCC2)c1 (single isomer, unassigned) [Example C70]
IC50 (H3K9AC (HT1080 cells); H3K9AC sandwich ELISA): 73.5 nM | Ki (KAT2A; [1]): 0.04 nM

CCS(=O)(=O)NC(=O)Cc1ccc(O[C@@H]2CC[C@@H](NC(=O)[C@@]3(F)CNC4(CCCC4)C3)C2)c(-c2cccc(F)c2C2CCC2)c1 (single isomer, unassigned) [Example C71]
IC50 (H3K9AC (HT1080 cells); H3K9AC sandwich ELISA): 1 nM | Ki (KAT2A; [1]): 0.01 nM

CCc1c(F)cccc1-c1cc(CC(=O)NS(=O)(=O)C(C)C)ccc1O[C@@H]1CC[C@@H](NC(=O)[C@@]2(F)CNC3(CCCC3)C2)C1 (single isomer, unassigned) [Example C72]
IC50 (H3K9AC (HT1080 cells); H3K9AC sandwich ELISA): > 1000 nM | Ki (KAT2A; [1]): 45.4 nM

CCc1c(F)cccc1-c1cc(CC(=O)NS(=O)(=O)C(C)C)ccc1O[C@@H]1CC[C@@H](NC(=O)[C@@]2(F)CNC3(CCCC3)C2)C1 (single isomer, unassigned) [Example C73]
IC50 (H3K9AC (HT1080 cells); H3K9AC sandwich ELISA): 4.8 nM | Ki (KAT2A; [1]): 0.05 nM

CC(C)c1ccccc1-c1cc(CC(=O)NS(=O)(=O)C(C)C)ccc1O[C@@H]1CC[C@@H](NC(=O)[C@@]2(F)CNCC(C)(C)C2)C1 (single isomer, unassigned) [Example C74]
IC50 (H3K9AC (HT1080 cells); H3K9AC sandwich ELISA): > 1000 nM | Ki (KAT2A; [1]): > 99.9 nM

CC(C)c1ccccc1-c1cc(CC(=O)NS(=O)(=O)C(C)C)ccc1O[C@@H]1CC[C@@H](NC(=O)[C@@]2(F)CNCC(C)(C)C2)C1 (single isomer, unassigned) [Example C75]
IC50 (H3K9AC (HT1080 cells); H3K9AC sandwich ELISA): 4.5 nM | Ki (KAT2A; [1]): 0.17 nM

CC(C)S(=O)(=O)NC(=O)Cc1ccc(O[C@@H]2CC[C@@H](NC(=O)[C@@]3(F)CNCC(C)(C)C3)C2)c(-c2cccc(F)c2C2CCC2)c1 (single isomer, unassigned) [Example C76]
IC50 (H3K9AC (HT1080 cells); H3K9AC sandwich ELISA): 485 nM | Ki (KAT2A; [1]): 46 nM

CC(C)S(=O)(=O)NC(=O)Cc1ccc(O[C@@H]2CC[C@@H](NC(=O)[C@@]3(F)CNCC(C)(C)C3)C2)c(-c2cccc(F)c2C2CCC2)c1 (single isomer, unassigned) [Example C77]
IC50 (H3K9AC (HT1080 cells); H3K9AC sandwich ELISA): 6 nM | Ki (KAT2A; [1]): 0.05 nM

CC1(C)CNC[C@](F)(C(=O)N[C@@H]2CC[C@@H](Oc3ccc(CC(=O)NS(=O)(=O)C4(C)CC4)cc3-c3cccc(F)c3C3CCC3)C2)C1 (single isomer, unassigned) [Example C78]
IC50 (H3K9AC (HT1080 cells); H3K9AC sandwich ELISA): > 1000 nM | Ki (KAT2A; [1]): 0.08 nM

CC1(C)CNC[C@](F)(C(=O)N[C@@H]2CC[C@@H](Oc3ccc(CC(=O)NS(=O)(=O)C4(C)CC4)cc3-c3cccc(F)c3C3CCC3)C2)C1 (single isomer, unassigned) [Example C79]
IC50 (H3K9AC (HT1080 cells); H3K9AC sandwich ELISA): 3.6 nM | Ki (KAT2A; [1]): 0.06 nM

CC(C)c1ccccc1-c1cc(CC(=O)NS(=O)(=O)C2(C)CC2)ccc1O[C@@H]1CC[C@@H](NC(=O)[C@@]2(F)CNCC(C)(C)C2)C1 (single isomer, unassigned) [Example C80]
IC50 (H3K9AC (HT1080 cells); H3K9AC sandwich ELISA): 2.6 nM | Ki (KAT2A; [1]): 0.11 nM

CC(C)c1ccccc1-c1cc(CC(=O)NS(=O)(=O)C2(C)CC2)ccc1O[C@@H]1CC[C@@H](NC(=O)[C@@]2(F)CNCC(C)(C)C2)C1 (single isomer, unassigned) [Example C81]
IC50 (H3K9AC (HT1080 cells); H3K9AC sandwich ELISA): 135 nM | Ki (KAT2A; [1]): 31.1 nM
